The target in assay [1] is human adenosine A2B receptor (Homo sapiens (Human), UniProt P29275). Description: Adenosine A2B Receptor Cyclic AMP GS Assay. The assay is classed as cell-based. As to conditions: HEK-293 cells expressing human A2B receptor; agonist NECA at 12 nM; cAMP accumulation (FRET); read-out: A2B_cAMP_EC50. The procedure: Stably transfected HEK-293 cells expressing the human adenosine A2B receptor (Perkin Elmer) were maintained in MEM culture medium with 10% FBS and 100 μg/ml Geneticin (Life Technologies). 18 to 24 hours prior to assay, geneticin was removed from culture. The cisbio cAMP-GS Dynamic kit utilizing the FRET (Fluorescence Resonance Energy Transfer) technology was used to measure cAMP accumulation in the cells. Compounds of the present disclosure at an appropriate concentration were mixed with 10000 cells/well in white 96 well half area plates (Perkin Elmer) for 30 min at RT gently shaking. Agonist, NECA (R&D Technologies) at 12 nM was added to each well for 60 min at RT gently shaking. Detection reagents, d2-labeled cAMP (acceptor) and anti-cAMP cryptate (donor) were added to each well for 60 min at RT gently shaking. Plates were read on Pherastar (BMG Labtech), fluorescence ratio 665/620 was calculated and EC50 determination was performed by fitting the curve of percent of control versus the log of the compound concentration using GraphPad Prism.
In general terms: Cyclic AMP is a second messenger, typically raised through Gs and lowered through Gi signalling.

Another assay deals with Adenosine A2A receptor (Homo sapiens (Human), UniProt P29274). The assay is described as follows: A2A Tag-lite HTRF Assay. As to conditions: Tag-lite Adenosine A2A labeled cells; A2A Receptor Red antagonist fluorescent ligand 12.5 nM; one-site competitive binding model; read-out: A2A_Ki. An excerpt: The final concentration of DMSO was 1%.
On the technique in general: TR-FRET usually uses a lanthanide donor and a delayed reading to cut background.

Sequence of human adenosine A2B receptor (P29275 whole entry): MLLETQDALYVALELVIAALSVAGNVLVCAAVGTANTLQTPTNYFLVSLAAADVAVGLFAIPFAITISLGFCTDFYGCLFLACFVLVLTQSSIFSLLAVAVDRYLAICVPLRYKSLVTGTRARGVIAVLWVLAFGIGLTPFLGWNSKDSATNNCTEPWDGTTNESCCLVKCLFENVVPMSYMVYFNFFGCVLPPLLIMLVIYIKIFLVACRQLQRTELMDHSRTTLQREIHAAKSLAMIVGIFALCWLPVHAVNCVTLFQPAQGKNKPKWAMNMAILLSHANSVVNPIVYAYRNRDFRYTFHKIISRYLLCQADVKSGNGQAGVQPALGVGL
Sequence of Adenosine A2A receptor (P29274 whole entry): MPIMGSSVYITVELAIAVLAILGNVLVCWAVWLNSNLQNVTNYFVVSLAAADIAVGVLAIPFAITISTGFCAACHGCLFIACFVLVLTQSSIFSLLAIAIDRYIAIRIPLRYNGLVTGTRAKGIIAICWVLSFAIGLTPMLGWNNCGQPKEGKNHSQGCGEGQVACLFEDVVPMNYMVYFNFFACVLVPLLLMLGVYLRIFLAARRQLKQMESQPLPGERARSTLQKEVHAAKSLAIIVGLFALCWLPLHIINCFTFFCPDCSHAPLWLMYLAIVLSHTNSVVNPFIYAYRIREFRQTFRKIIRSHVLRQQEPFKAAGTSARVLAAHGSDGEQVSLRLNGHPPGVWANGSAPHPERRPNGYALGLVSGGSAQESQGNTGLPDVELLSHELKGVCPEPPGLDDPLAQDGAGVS

As to `CCn1nccc1-c1c(-c2cccc(C#N)c2)nc(N)n2nc(Cc3ccccn3)nc12` [Example 42, 3-(5-Amino-8-(1-ethyl-1H-pyrazol-5-yl)-2-(pyridin-2-ylmethyl)-[1,2,4]triazolo[1,5-c]pyrimidin-7-yl)benzonitrile], the EC50 in assay [1] was below 10 nM. Also, at Adenosine A2A receptor, the Ki was below 10 nM.

As to `CCNC(=O)c1cn2c(N)nc(-c3ccccc3)c(C3CCN(C(N)=O)CC3)c2n1` [Example 16, 5-Amino-8-(1-carbamoylpiperidin-4-yl)-N-ethyl-7-phenylimidazo[1,2-c]pyrimidine-2-carboxamide], the EC50 in assay [1] is 100 to 1000 nM. Also, the Ki on Adenosine A2A receptor was below 10 nM.

As to `Cc1cc(C(F)(F)F)nn1Cc1nc2c(-c3ccncn3)c(-c3cccc(C#N)c3)nc(N)n2n1` [Example 81, 3-(5-Amino-2-((5-methyl-3-(trifluoromethyl)-1H-pyrazol-1-yl)methyl)-8-(pyrimidin-4-yl)-[l*2,4]triazolo[1,5-c]pyrimidin-7-yl)benzonitrile], in assay [1], the EC50 was below 10 nM. The Ki on Adenosine A2A receptor was below 10 nM.

As for `CCNC(=O)c1cn2c(N)nc(-c3cccc(C#N)c3)c(-c3cnn4ccccc34)c2n1` [Example 33, 5-Amino-7-(3-cyanophenyl)-N-ethyl-8-(pyrazolo[1,5-a]pyridin-3-yl)imidazo[1,2-c]pyrimidine-2-carboxamide], the EC50 in assay [1] fell in the range of 100 to 1000 nM. Besides, the Ki on Adenosine A2A receptor was below 10 nM.

For the compound `Cc1ncoc1-c1c(-c2cccc(C#N)c2)nc(N)n2nc(Cc3ccn(C)n3)nc12` [Example 92, 3-(5-Amino-2-((1-methyl-1H-pyrazol-3-yl)methyl)-8-(4-methyloxazol-5-yl)-[1,2,4]triazolo[1,5-c]pyrimidin-7-yl)benzonitrile], in assay [1], the EC50 was below 10 nM. In addition, at Adenosine A2A receptor, the Ki is below 10 nM.

With `CCNC(=O)c1cn2c(NCC)nc(-c3ccccc3)c(-c3cc(C)nc(C)c3)c2n1` [Example 22, 8-(2,6-Dimethylpyridin-4-yl)-N-ethyl-5-(ethylamino)-7-phenylimidazo[1,2-c]pyrimidine-2-carboxamide], the EC50 in assay [1] is above 1000 nM. The Ki on Adenosine A2A receptor fell in the range of 10 to 100 nM.

On to `CCNC(=O)c1cn2c(N)nc(-c3cccc(C#N)c3)c(-c3ccncc3Cl)c2n1` [Example 29, 5-Amino-7-(3-cyanophenyl)-N-ethyl-8-(3-chloropyridin-4-yl)imidazo[1,2-c]pyrimidine-2-carboxamide], for which, in assay [1], the EC50 is below 10 nM. Moreover, at Adenosine A2A receptor, the Ki was below 10 nM.

Regarding `Cn1ccc(Cc2nc3c(-c4cnco4)c(-c4cccc(C#N)c4)nc(N)n3n2)n1` [Example 93, 3-(5-Amino-2-((1-methyl-1H-pyrazol-3-yl)methyl)-8-(oxazol-5-yl)-[1,2,4]triazolo[1,5-c]pyrimidin-7-yl)benzonitrile], the EC50 in assay [1] was below 10 nM. Besides, the Ki at Adenosine A2A receptor was below 10 nM.

`COCc1nc(C)oc1-c1c(-c2cccc(C#N)c2)nc(N)n2nc(Cc3ccccn3)nc12` [Example 63, 3-(5-Amino-8-(4-(methoxymethyl)-2-methyloxazol-5-yl)-2-(pyridin-2-ylmethyl)-[1,2,4]triazolo[1,5-c]pyrimidin-7-yl)benzonitrile]: the EC50 in assay [1] was below 10 nM. Moreover, the Ki at Adenosine A2A receptor is below 10 nM.

Take `CCCn1nccc1-c1c(-c2cccc(C#N)c2)nc(N)n2cc(C(=O)NCC)nc12` [Example 37, 5-Amino-7-(3-cyanophenyl)-N-ethyl-8-(1-propyl-1H-pyrazol-5-yl)imidazo[1,2-c]pyrimidine-2-carboxamide]: the EC50 in assay [1] was below 10 nM. Besides, the Ki at Adenosine A2A receptor is below 10 nM.

In the case of `N#Cc1cccc(-c2nc(N)n3nc(Cc4c(F)cccc4CN4CCC(C(=O)O)CC4)nc3c2-c2ccncn2)c1` [Example 73, 1-(2-((5-Amino-7-(3-cyanophenyl)-8-(pyrimidin-4-yl)-[1,2,4]triazolo[1,5-c]pyrimidin-2-yl)methyl)-3-fluorobenzyl)piperidine-4-carboxylic acid], the EC50 in assay [1] was 10 to 100 nM. Further, the Ki on Adenosine A2A receptor is below 10 nM.

As to `Nc1nc(-c2ccncc2)c(-c2ccncc2)c2nccn12` [Example 5, 7,8-Di(pyridin-4-yl)imidazo[1,2-c]pyrimidin-5-amine], the EC50 in assay [1] lay within 10 to 100 nM. Besides, the Ki on Adenosine A2A receptor is 10 to 100 nM.

Regarding `N#Cc1cccc(-c2nc(N)n3nc(Cc4ncccc4F)nc3c2-c2ccncn2)c1` [Example 88, 3-(5-Amino-2-((3-fluoropyridin-2-yl)methyl)-8-(pyrimidin-4-yl)-[1,2,4]triazolo[1,5-c]pyrimidin-7-yl)benzonitrile], the EC50 in assay [1] was below 10 nM. Besides, at Adenosine A2A receptor, the Ki was below 10 nM.

Regarding `CCn1nccc1-c1c(-c2cccc(C#N)c2)nc(N)n2nc(Cc3ncccc3OC)nc12` [Example 53, 3-(5-Amino-8-(1-ethyl-1H-pyrazol-5-yl)-2-((3-methoxypyridin-2-yl)methyl)-[1,2,4]triazolo[1,5-c]pyrimidin-7-yl)benzonitrile], the EC50 in assay [1] was 10 to 100 nM. In addition, the Ki on Adenosine A2A receptor was below 10 nM.

As to `CCNC(=O)c1nc2c(-c3ccnc(OC)c3)c(-c3cccc(C#N)c3)nc(N)n2c1C` [Example 18, 5-Amino-7-(3-cyanophenyl)-N-ethyl-8-(2-methoxypyridin-4-yl)-3-methylimidazo[1,2-c]pyrimidine-2-carboxamide], the EC50 in assay [1] fell in the range of 10 to 100 nM. Moreover, the Ki on Adenosine A2A receptor was 10 to 100 nM.

Consider `CCn1nccc1-c1c(-c2cccc(C#N)c2)nc(N)n2nc(CC3CCCCC3)nc12` [Example 48, 3-(5-Amino-2-(cyclohexylmethyl)-8-(1-ethyl-1H-pyrazol-5-yl)-[1,2,4]triazolo[1,5-c]pyrimidin-7-yl)benzonitrile], for which the EC50 in assay [1] fell in the range of 10 to 100 nM. Further, on Adenosine A2A receptor, the Ki is below 10 nM.

With `COc1cc(-c2c(-c3cccc(C#N)c3)nc(N)n3nc(Cc4ccccn4)nc23)cc(C)n1` [Example 59, 3-(5-Amino-8-(2-methoxy-6-methylpyridin-4-yl)-2-(pyridin-2-ylmethyl)-[1,2,4]triazolo[1,5-c]pyrimidin-7-yl)benzonitrile], the EC50 in assay [1] was 10 to 100 nM. On Adenosine A2A receptor, the Ki is below 10 nM.

On to `Cc1cccnc1Cc1nc2c(-c3ocnc3C)c(-c3cccc(C#N)c3)nc(N)n2n1` [Example 84, 3-(5-Amino-8-(4-methyloxazol-5-yl)-2-((3-methylpyridin-2-yl)methyl)-[1,2,4]triazolo[1,5-c]pyrimidin-7-yl)benzonitrile], for which, in assay [1], the EC50 is below 10 nM. On Adenosine A2A receptor, the Ki was below 10 nM.

On to `CCn1nccc1-c1c(-c2cccc(C#N)c2)nc(N)n2nc(Cc3nn(C)c4ccccc34)nc12` [Example 56, 3-(5-Amino-8-(1-ethyl-1H-pyrazol-5-yl)-2-((1-methyl-1H-indazol-3-yl)methyl)-[1,2,4]triazolo[1,5-c]pyrimidin-7-yl)benzonitrile], for which the EC50 in assay [1] is 10 to 100 nM. Besides, the Ki on Adenosine A2A receptor is below 10 nM.

For `CCNC(=O)c1nc2c(-c3cc(C)nc(C)c3)c(-c3ccccc3)nc(N)n2c1Br` [Example 20, 5-Amino-3-bromo-8-(2,6-dimethylpyridin-4-yl)-N-ethyl-7-phenylimidazo[1,2-c]pyrimidine-2-carboxamide], in assay [1], the EC50 lay within 100 to 1000 nM. Moreover, the Ki at Adenosine A2A receptor is below 10 nM.

Turning to `Cc1cccnc1CNc1nc2c(-c3ccncn3)c(-c3cccc(C#N)c3)nc(N)n2n1` [Example 97, 3-(5-Amino-2-(((3-methylpyridin-2-yl)methyl)amino)-8-(pyrimidin-4-yl)-[1,2,4]triazolo[1,5-c]pyrimidin-7-yl)benzonitrile], in assay [1], the EC50 was below 10 nM. Besides, the Ki on Adenosine A2A receptor was below 10 nM.

As for `Cc1ncoc1-c1c(-c2cccc(C#N)c2)nc(N)n2nc(Cc3ccccn3)nc12` [Example 61, 3-(5-Amino-8-(4-methyloxazol-5-yl)-2-(pyridin-2-ylmethyl)-[1,2,4]triazolo[1,5-c]pyrimidin-7-yl)benzonitrile], the EC50 in assay [1] is below 10 nM. Further, the Ki on Adenosine A2A receptor was below 10 nM.

For `Cc1cccc(COc2nc3c(-c4ccncn4)c(-c4cccc(C#N)c4)nc(N)n3n2)n1` [Example 95, 3-(5-Amino-2-((6-methylpyridin-2-yl)methoxy)-8-(pyrimidin-4-yl)-[1,2,4]triazolo[1,5-c]pyrimidin-7-yl)benzonitrile], the EC50 in assay [1] was below 10 nM. The Ki at Adenosine A2A receptor is below 10 nM.

For the compound `N#Cc1cccc(-c2nc(N)n3nc(C(Oc4ccccn4)c4ccccc4)nc3c2-c2ccncn2)c1` (stereo not shown) [Example 71, 3-(5-Amino-2-(phenyl(pyridin-2-yloxy)methyl)-8-(pyrimidin-4-yl)-[1,2,4]triazolo[1,5-c]pyrimidin-7-yl)benzonitrile], the EC50 in assay [1] lay in the range of 10 to 100 nM. Also, the Ki on Adenosine A2A receptor was below 10 nM.

As to `Cc1ncoc1-c1c(-c2cccc(C#N)c2F)nc(N)n2nc(Cc3ccccn3)nc12` [Example 90, 3-(5-Amino-8-(4-methyloxazol-5-yl)-2-(pyridin-2-ylmethyl)-[1,2,4]triazolo[1,5-c]pyrimidin-7-yl)-2-fluorobenzonitrile], the EC50 in assay [1] was below 10 nM. Besides, the Ki on Adenosine A2A receptor is below 10 nM.

Consider `CCn1nncc1-c1c(-c2cccc(C#N)c2)nc(N)n2nc(Cc3ccccn3)nc12` [Example 83, 3-(5-Amino-8-(1-ethyl-1H-1,2,3-triazol-5-yl)-2-(pyridin-2-ylmethyl)-[1,2,4]triazolo[1,5-c]pyrimidin-7-yl)benzonitrile], for which the EC50 in assay [1] is 10 to 100 nM. In addition, the Ki at Adenosine A2A receptor was below 10 nM.
